The subject of assay [1] is Leishmania donovani promastigotes. The assay is described as follows: Iron content analysis by atomic absorption spectroscopy. The assay is classed as cell-based. As to conditions: 24 hours; 4x IC50 (amphotericin B IC50). The procedure: The parasites were then washed twice with 1x PBS and resuspended in 50 μl deionized water. An aliquot (10 μl) of the parasite suspension was used for protein content determination as described by. The remaining parasite sample (40 μl) was digested with HNO3 for 1 hour at 80°C and overnight at 20°C. Cell digestions were stopped by the addition of 30% H2O2 and topped up to 1.5 ml with deionized water. Iron content in digested samples, spent and unused media were measured by atomic absorption spectroscopy using a Perkin Elmer Analyst 300 spectrometer.

Assay [2] concerns L. donovani promastigotes. The assay is described as follows: Cell cycle analysis by flow cytometry. Format: cell-based, Leishmania donovani. The settings on record: 24 hours; for decrease in the number of parasites at the M phase / increase in G0/G1 cells: 2x IC50 (amphotericin B 1/2 IC50); for increase in G0/G1 cells: versus untreated 34.6%. The procedure:
Cell cycle analysis of treated and untreated L. donovani promastigotes was performed using flow cytometry. […] The fixed cells were harvested, resuspended in 1x PBS for 1 min and washed twice in 1x PBS. Staining solution (Guava cell cycle reagent) was added and incubated at room temperature for 30 min. The percentage cell count in G0, G1, S, G2 and M phases of the cell cycle were determined with BD LSR Fortessa™^. X-20 analyzer (BD Biosciences) and data was analyzed with FlowJo software.

Assay [3] relates to Leishmania donovani promastigotes. The assay is described as follows: Parasite growth analysis (trypan blue counting). As to conditions: IC50 concentrations; for decrease in the number of promastigotes: at 48 hours. The assay is classed as cell-based. The procedure:
The dose dependent inhibition of phenolic compounds on promastigotes was determined by culturing promastigotes (2 x 10^5 cells) in freshly prepared M199 medium in the presence and absence of varying concentration of the test compounds, apigenin (IC50, 2x IC50, 4x IC50), rosmarinic acid (IC50, 2x IC50, 4x IC50), amphotericin B (1/2 IC50, IC50) and deferoxamine (IC50, 2x IC50, 4x IC50), for 120 hours. The number of parasites was determined by staining with trypan blue every 24 hours. Quantification of the viable parasites was determined by counting the parasites with the clear cytoplasm (non-stained) using a Neubauer hemocytometer with a cover slip. Three independent experiments were performed, and data expressed as mean ± standard deviation.

The test system of assay [4] is ribonucleotide reductase (RNR). The assay is described as follows: RT-qPCR mRNA expression of RNR. The assay is classed as cell-based, Leishmania donovani. The settings on record: promastigotes, 24 hours; for RNR Relative quantity: Fig 7C. The procedure:
Promastigotes (1 x 10^7 cells) were separately treated with rosmarinic acid, apigenin, amphotericin B and deferoxamine, harvested after 24 hours incubation at 25°C. The parasites were then pelleted by centrifugation at 239 × g for 10 min and the pellet was re-suspended in 1 mL TRIzol. Samples were incubated overnight at -80°C and total RNA was extracted as described by the manufacturer’s protocol using Quick-RNA MiniPrep Plus (Zymo Research, USA). Purity of total RNA was determined to be approximately 2.0 using a Nanodrop. The oligonucleotide primers for the amplification of the iron dependent enzymes—ribonucleotide reductase (RNR) (3’[…] and 5’CAACAACTTCTGCGCATCG), iron superoxide dismutase A (FeSOD) (3’[…] and 5’[…]) and Leishmania iron transporter 1 (LIT1) (3’[…] and 5’ […]) were designed using sequences of Leishmania reference genome from tritrypdb.org (http://tritrypdb.org/tritrypdb/) and Primer 3 software. The oligonucleotide primers used in amplifying the housekeeping gene Histone 2A were (3’ […] and 5’[…]). The RT-qPCR reaction was conducted as described by manufacturer’s protocol with final concentrations of oligonucleotide primers as 0.4 μM, 1x Luna Universal One-Step Reaction mix, 1x Luna WarmStart RT Enzyme Mix and template RNA ≤ 1 μg. All the RT-PCR products were standardized with respect to the endogenous control, Histone 2A. The levels of the mRNA transcripts were obtained using the QuantStudio 5 Real-Time PCR System (Applied Biosystems). The data represent three independent experiments done in triplicate and a fold change in gene expression of >2 was considered significant.
For orientation: In qPCR the cycle at which signal appears reflects the starting amount.

The subject of assay [5] is L. donovani promastigotes. The assay is described as follows: Morphology analysis (DAPI, microscopy). Format: cell-based, Leishmania donovani. The settings on record: 24 hours; for parasites with rounded morphology, aggregated kinetoplast and nuclear DNA: 2x IC50. Here is the method:
The cell pellets were then washed twice and resuspended in 1x PBS. The cells were then allowed to settle on poly-L-lysine coated slides and then rinsed with 1x PBS. Tris-HCl (100 mM) pH 7.5 in 1x PBS was used to block the PFA for 10 minutes. DAPI stain (0.1μg/mL) was added followed by one wash in 1x PBS. Coverslips were mounted onto the slides using Vectashield mounting media and observed under the Olympus fluorescent microscope to detect any phenotypic changes in L. donovani promastigotes. The total number of parasites was determined by direct counting of parasites per field, using ImageJ Software. The frequency of parasites was visually determined by counting parasites that had any abnormalities in their structure compared to the untreated control.

Experimental findings from PMC6405172, “In vitro activity and mode of action of phenolic compounds on Leishmania donovani” (PLoS Neglected Tropical Diseases, 2019) are described below.

Each structure is given as a SMILES string.

Regarding `O=c1cc(-c2ccc(O)cc2)oc2cc(O)cc(O)c12` [Apigenin, apigenin], in assay [1], the “concentration of iron in the spent media” value stood at 0.11 mg/L and the “intracellular iron levels in promastigotes” value (from here on “intracellular iron levels”) is recorded as 0.1 mg/L. For the same compound, the “decrease in the number of parasites at the M phase” value (from here on “decrease in the number of parasites”) in assay [2] (versus untreated) turned out to be 6.8%. In addition, the “increase in G0/G1 cells” value in assay [2] is reported as 8%. In addition, the “decrease in the number of promastigotes” value in assay [3] turned out to be 50%. In assay [4], the “increased expression of RNR” value was 3 fold and the “RNR Relative quantity” value is 2.5.

For `O=C(/C=C/c1ccc(O)c(O)c1)O[C@H](Cc1ccc(O)c(O)c1)C(=O)O` [Rosmarinic acid, rosmarinic acid], in assay [1], the “concentration of iron in the spent media” value was 0.09 mg/L and the “intracellular iron levels” value is 0.30 mg/L. For the same compound, in assay [2] (versus untreated), the “decrease in the number of parasites” value turned out to be 8.0%. The “increase in G0/G1 cells” value in assay [2] is 7.1%. The “parasites with rounded morphology, aggregated kinetoplast and nuclear DNA” value in assay [5] is given as 70%. The “decrease in the number of promastigotes” value in assay [3] is recorded as 50%. In assay [4], the “decrease in the expression of RNR” value is 90 % reduction and the “RNR Relative quantity” value is recorded as 0.1.

For `C[C@@H]1[C@H](O)[C@@H](C)/C=C/C=C/C=C/C=C/C=C/C=C/C=C/[C@H](O[C@@H]2O[C@H](C)[C@@H](O)[C@H](N)[C@@H]2O)C[C@@H]2O[C@](O)(C[C@@H](O)C[C@@H](O)[C@H](O)CC[C@@H](O)C[C@@H](O)CC(=O)O[C@H]1C)C[C@H](O)[C@H]2C(=O)O` [Amphotericin B, reference compound], in assay [1], the “concentration of iron in the spent media” value turned out to be 0.07 mg/L and the “intracellular iron levels” value is given as 0.15 mg/L. Moreover, the “increase in G0/G1 cells” value in assay [2] stood at 13.1%. Moreover, the “change in the number of parasites at the S phase” value in assay [2] (versus untreated) is “significant increase”. Also, the “parasites showing irregular shape, severe distortion in the cell membrane, loss of kinetoplast DNA” value in assay [5] (half the IC50) is reported as 90%. For the same compound, the “reduction in the number of parasites” value in assay [3] (at 24 hours) is recorded as 90%. Further, in assay [4], the “increased expression of RNR” value is 3 fold and the “RNR Relative quantity” value was 3.2.

As for `CC(=O)N(O)CCCCCNC(=O)CCC(=O)N(O)CCCCCNC(=O)CCC(=O)N(O)CCCCCN` [Deferoxamine, deferoxamine, reference compound], in assay [1], the “concentration of iron in the spent media” value is given as 0.08 mg/L and the “intracellular iron levels” value is reported as 0.36 mg/L. Moreover, the “decrease in the number of parasites” value in assay [2] (versus untreated) is recorded as 7.7%. Further, the “increase in G0/G1 cells” value in assay [2] is given as 7%. The “parasites with rounded morphology, aggregated kinetoplast and nuclear DNA” value in assay [5] came to 90%. Besides, the “decrease in the number of promastigotes” value in assay [3] is 50%. Moreover, in assay [4], the “decrease in the expression of RNR” value is given as 80 % reduction and the “RNR Relative quantity” value stood at 0.2.
